According to patent publication US11225492B2, “Heterocycles useful as anti-cancer agents” (Hangzhou Innogate Pharma Co., Ltd., priority 2015, dated 2022):
Read-outs that look alike come from different tables or passages of the source.

What was measured:
Assay type in all cases: biochemical
CDK6/cycD3 = CDK6/cycD3 (Homo sapiens (Human), UniProt Q00534); assay: CDK6/cycD3 kinase Mobility Shift Assay; settings: CDK6/cycD3 15 nM, ATP Km 800 μM, 60 min, 28° C.
Method: (§1) 1. CDK2, CDK4 and CDK6 Kinase Assays:
(§2) CDK2/CycA2 and CDK6/cycD3 were assayed under buffer conditions in the presence of 50 mM HEPES (pH 7.5), 10 mM MgCl2, 0.0015% Brij-35, and 2 mM dithiothreitol, CDK4/CycD3 with buffer condition of 20 mM HEPES (pH 7.5), 10 mM MgCl2, 0.01% Triton X-100, and 2 mM dithiothreitol. Prepare compounds to 50× of the final desired highest inhibitor concentration by 100% DMSO and serial dilution in 3-fold for total of 10 concentrations. […] After assay for 60 min, 180 min, 60 min respectively at 28° C., reactions were terminated with stop solution (50 mM EDTA, 0.015% Brij-35, 0.2% Coating Reagent #3 and 100 mM HEPES (pH 7.5)). Collect conversion on Caliper EZ Reader. IC50 values were calculated by fitting the dose-response curves with Xlfit excel add-in version 4.3.1.

CDK2/CycA2 = CDK2/CycA2 (Homo sapiens (Human), UniProt P24941); assay: CDK2/CycA2 kinase Mobility Shift Assay; settings: CDK2/CycA2 12 nM, ATP Km 39 μM, 60 min, 28° C.
Method: as §1, §2

CDK4/CycD3 = CDK4/CycD3 (Homo sapiens (Human), UniProt P11802); assay: CDK4/CycD3 kinase Mobility Shift Assay
Chain of CDK4/CycD3 (P11802 whole entry, species assumed): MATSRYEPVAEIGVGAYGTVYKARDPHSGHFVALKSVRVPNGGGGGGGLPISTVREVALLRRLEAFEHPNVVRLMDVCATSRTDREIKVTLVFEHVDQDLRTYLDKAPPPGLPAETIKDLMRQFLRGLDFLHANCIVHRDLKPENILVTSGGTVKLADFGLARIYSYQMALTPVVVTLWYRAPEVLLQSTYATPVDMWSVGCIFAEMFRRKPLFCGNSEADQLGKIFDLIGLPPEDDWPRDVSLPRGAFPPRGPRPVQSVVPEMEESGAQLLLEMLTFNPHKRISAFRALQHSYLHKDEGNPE
Chain of CDK4/CycD3 (P30281 whole entry partner, species assumed): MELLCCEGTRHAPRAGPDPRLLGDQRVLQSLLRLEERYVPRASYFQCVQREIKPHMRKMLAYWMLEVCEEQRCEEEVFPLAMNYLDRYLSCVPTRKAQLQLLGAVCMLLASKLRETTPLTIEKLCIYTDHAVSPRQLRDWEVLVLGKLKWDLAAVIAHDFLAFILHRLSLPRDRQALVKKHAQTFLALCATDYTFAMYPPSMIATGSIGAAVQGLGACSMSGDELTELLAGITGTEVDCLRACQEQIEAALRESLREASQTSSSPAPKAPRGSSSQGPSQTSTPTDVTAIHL
Method: as §1, §2

HDAC-6 = HDAC-6 (Homo sapiens (Human), UniProt Q9UBN7); assay: HDAC-6 fluorogenic deacetylase assay; settings: recombinant, full-length protein, Ac-peptide-AMC substrate; read-out: HDAC6 (IC50)
Chain of HDAC-6 (Q9UBN7 whole entry): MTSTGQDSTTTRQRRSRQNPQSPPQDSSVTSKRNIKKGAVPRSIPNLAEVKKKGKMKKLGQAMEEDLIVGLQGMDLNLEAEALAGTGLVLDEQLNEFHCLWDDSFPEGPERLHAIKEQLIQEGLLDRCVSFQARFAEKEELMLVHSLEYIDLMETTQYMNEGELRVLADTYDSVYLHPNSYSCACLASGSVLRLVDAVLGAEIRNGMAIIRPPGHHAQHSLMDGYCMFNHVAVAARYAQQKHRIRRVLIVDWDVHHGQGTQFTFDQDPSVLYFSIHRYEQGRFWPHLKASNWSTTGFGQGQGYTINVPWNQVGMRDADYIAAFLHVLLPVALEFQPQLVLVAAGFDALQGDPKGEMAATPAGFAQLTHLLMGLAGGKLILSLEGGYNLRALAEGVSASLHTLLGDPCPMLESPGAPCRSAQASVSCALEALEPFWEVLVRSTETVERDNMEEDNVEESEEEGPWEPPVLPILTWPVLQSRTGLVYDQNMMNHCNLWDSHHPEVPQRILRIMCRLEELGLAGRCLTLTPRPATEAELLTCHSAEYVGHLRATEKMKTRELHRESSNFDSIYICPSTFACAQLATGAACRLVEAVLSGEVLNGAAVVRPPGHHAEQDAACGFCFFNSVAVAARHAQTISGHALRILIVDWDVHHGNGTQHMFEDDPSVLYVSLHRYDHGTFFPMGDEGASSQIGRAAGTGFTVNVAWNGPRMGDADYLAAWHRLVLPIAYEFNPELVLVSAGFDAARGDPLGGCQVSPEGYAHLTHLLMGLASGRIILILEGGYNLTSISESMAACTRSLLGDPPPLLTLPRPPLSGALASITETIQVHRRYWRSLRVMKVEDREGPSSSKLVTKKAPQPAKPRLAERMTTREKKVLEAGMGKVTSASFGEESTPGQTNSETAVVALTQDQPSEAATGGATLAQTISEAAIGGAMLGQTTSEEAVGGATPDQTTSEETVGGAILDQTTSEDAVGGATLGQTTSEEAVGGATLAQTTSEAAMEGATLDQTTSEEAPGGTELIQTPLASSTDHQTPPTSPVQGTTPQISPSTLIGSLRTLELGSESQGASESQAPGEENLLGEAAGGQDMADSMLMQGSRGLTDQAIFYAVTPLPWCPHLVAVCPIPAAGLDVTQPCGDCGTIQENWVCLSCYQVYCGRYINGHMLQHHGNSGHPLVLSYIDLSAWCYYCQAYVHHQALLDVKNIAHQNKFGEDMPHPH
Method: (§3) 2. HDAC-1, HDAC-2 and HDAC-6 Assays:
(§4) The inhibitory effect of compounds on HDAC-1, HDAC-2 and HDAC-6 function was determined in vitro using an optimized homogenous assay performed in 384-well plate format. In this assay, recombinant, full-length HDAC-1, HDAC-2 or HDAC-6 protein (BPS Biosciences) was incubated with Ac-peptide-AMC with concentration in Km plot. Reactions were performed in Tris-based assay buffer and followed for fluorogenic release of 7-amino-4-methylcoumarin from substrate upon deacetylase and trypsin enzymatic activity. Fluorescence measurements were obtained using a multilabel plate reader (Synergy MX with excitation at 355 nm and emission at 460 nm). Data were analyzed on a plate-by-plate basis for the linear range of fluorescence over time. Fit the data in GraphPad Prism V5.0 software to obtain IC50 values using equation (Y=Bottom+(Top−Bottom)/(1+10^((Log IC50−X)*Hill Slope), Y is % inhibition and X is compound concentration).

HDAC-1 = HDAC-1 (Homo sapiens (Human), UniProt Q13547); assay: HDAC-1 fluorogenic deacetylase assay; settings: recombinant, full-length protein, Ac-peptide-AMC substrate; read-out: HDAC1 (IC50)
Chain of HDAC-1 (Q13547 whole entry): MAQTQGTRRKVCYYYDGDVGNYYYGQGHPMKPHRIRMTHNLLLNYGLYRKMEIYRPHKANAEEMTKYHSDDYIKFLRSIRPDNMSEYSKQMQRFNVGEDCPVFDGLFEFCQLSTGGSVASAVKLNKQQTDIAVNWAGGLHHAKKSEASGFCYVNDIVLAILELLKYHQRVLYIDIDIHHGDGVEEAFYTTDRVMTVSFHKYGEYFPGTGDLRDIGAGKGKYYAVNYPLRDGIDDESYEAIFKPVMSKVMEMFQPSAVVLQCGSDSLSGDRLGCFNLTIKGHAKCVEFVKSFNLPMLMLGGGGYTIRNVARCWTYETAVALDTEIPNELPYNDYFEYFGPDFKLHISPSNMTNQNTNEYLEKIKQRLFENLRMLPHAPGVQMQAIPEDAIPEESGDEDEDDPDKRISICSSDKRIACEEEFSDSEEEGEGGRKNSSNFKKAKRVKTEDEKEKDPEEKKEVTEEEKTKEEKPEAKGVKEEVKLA
Method: as §3, §4

[1] = CDK4/CycD3 10 nM, ATP Km 221 μM, 180 min, 28° C.

Chain of CDK6/cycD3 (Q00534 whole entry, species assumed): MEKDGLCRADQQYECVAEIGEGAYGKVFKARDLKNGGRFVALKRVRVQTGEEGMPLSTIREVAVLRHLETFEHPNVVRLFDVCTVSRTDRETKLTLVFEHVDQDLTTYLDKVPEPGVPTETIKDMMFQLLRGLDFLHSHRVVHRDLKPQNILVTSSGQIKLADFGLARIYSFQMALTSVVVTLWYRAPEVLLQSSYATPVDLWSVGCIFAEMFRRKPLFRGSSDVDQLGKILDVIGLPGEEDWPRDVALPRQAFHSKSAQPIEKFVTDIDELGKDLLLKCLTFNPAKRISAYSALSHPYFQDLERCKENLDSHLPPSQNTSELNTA
Chain of CDK6/cycD3 (P30281 whole entry partner, species assumed): as the sequence (P30281 whole entry partner, species assumed) above

| Compound | IC50 (CDK6/cycD3) | IC50 (CDK2/CycA2) | IC50 (CDK4/CycD3; [1]) | IC50 (HDAC-6) | IC50 (HDAC-1) | IC50 (CDK4/CycD3) |
| --- | --- | --- | --- | --- | --- | --- |
| CC(=O)c1c(C)c2cnc(Nc3ccc(N4CCC5(CC4)CNC5)cn3)nc2n(C2CCCC2)c1=O [Compound 3, 2-(5-(2,7-Diazaspiro[3.5]nonan-7-yl)pyridin-2-ylamino)-6-acetyl-8-cyclopentyl-5-methylpyrido[2,3-d]pyrimidin-7(8H)-one] | < 25 nM | > 5000 nM | < 10 nM |  |  |  |
| CC(=O)c1c(C)c2cnc(Nc3ccc(N4CCN(Cc5ccc(C(=O)NO)cc5)CC4)cn3)nc2n(C2CCCC2)c1=O [Compound 16, 4-((4-(6-((6-acetyl-8-cyclopentyl-5-methyl-7-oxo-7,8-dihydropyrido[2,3-d]pyrimidin-2-yl)amino)pyridin-3-yl)piperazin-1-yl)methyl)-N-hydroxybenzamide] | < 50 nM | > 1000 nM | < 10 nM | < 10 nM | < 500 nM |  |
| CC(=O)c1c(C)c2cnc(Nc3ccc(N4CC5CNCC(C4)C5(F)F)cn3)nc2n(C2CCCC2)c1=O (single isomer, unassigned) [Compound 4-1, 6-acetyl-8-cyclopentyl-2-(5-(9,9-difluoro-3,7-diazabicyclo[3.3.1]nonan-3-yl)pyridin-2-ylamino)-5-methylpyrido[2,3-d]pyrimidin-7(8H)-one] | < 100 nM | < 1000 nM | < 25 nM |  |  |  |
| CC(=O)c1c(C)c2cnc(Nc3ccc(N4CCN(CCCCCCC(=O)NO)CC4)cn3)nc2n(C2CCCC2)c1=O [Compound 14, 7-(4-(6-(6-acetyl-8-cyclopentyl-5-methyl-7-oxo-7,8-dihydropyrido[2,3-d]pyrimidin-2-ylamino)pyridin-3-yl)piperazin-1-yl)-N-hydroxyheptanamide] | < 10 nM |  | < 10 nM | < 50 nM | < 500 nM |  |
| CC(=O)c1c(C)c2cnc(Nc3ccc(N4CCN(CCCCCCCC(=O)NO)CC4)cn3)nc2n(C2CCCC2)c1=O [Compound 15, 8-(4-(6-((6-acetyl-8-cyclopentyl-5-methyl-7-oxo-7,8-dihydropyrido[2,3-d]pyrimidin-2-yl)amino)pyridin-3-yl)piperazin-1-yl)-N-hydroxyoctanamide] | < 25 nM | > 1000 nM | < 10 nM | < 50 nM | < 500 nM |  |
| CC(=O)c1c(C)c2cnc(Nc3ccc(N4CC5CNCC(C5)C4)cn3)nc2n(C2CCCC2)c1=O [Compound 1, 2-(5-(3,7-diazabicyclo[3.3.1]nonan-3-yl)pyridin-2-ylamino)-6-acetyl-8-cyclopentyl-5-methylpyrido[2,3-d]pyrimidin-7(8H)-one] | < 25 nM | > 5000 nM | < 10 nM |  |  |  |
| CC(=O)c1c(C)c2cnc(Nc3ccc(N4CCN(C(=O)CCCCCCC(=O)NO)CC4)cn3)nc2n(C2CCCC2)c1=O [Compound 12, 8-(4-(6-(6-acetyl-8-cyclopentyl-5-methyl-7-oxo-7,8-dihydropyrido[2,3-d]pyrimidin-2-ylamino)pyridin-3-yl)piperazin-1-yl)-N-hydroxy-8-oxooctanamide] | < 25 nM | > 10000 nM | < 10 nM | < 10 nM | < 50 nM |  |
| CC(=O)c1c(C)c2cnc(Nc3ccc(C(=O)NCCCCCCC(=O)NO)cn3)nc2n(C2CCCC2)c1=O [Compound 18, 6-((6-acetyl-8-cyclopentyl-5-methyl-7-oxo-7,8-dihydropyrido[2,3-d]pyrimidin-2-yl)amino)-N-(7-(hydroxyamino)-7-oxoheptyl)nicotinamide] | < 1000 nM | > 1000 nM | < 50 nM | < 10 nM | < 50 nM |  |
| CC(=O)c1c(C)c2cnc(Nc3ccc4c(n3)CCNC4)nc2n(C2CCCC2)c1=O [Compound 8, 6-acetyl-8-cyclopentyl-5-methyl-2-(5,6,7,8-tetrahydro-1,6-naphthyridin-2-ylamino)pyrido[2,3-d]pyrimidin-7(8H)-one] | < 100 nM | > 1000 nM |  |  |  | < 10 nM |
| CC(=O)c1c(C)c2cnc(Nc3ccc(N4CCCC5(CCNCC5)C4)cn3)nc2n(C2CCCC2)c1=O [Compound 6, 2-(5-(2,9-diazaspiro[5.5]undecan-2-yl)pyridin-2-ylamino)-6-acetyl-8-cyclopentyl-5-methylpyrido[2,3-d]pyrimidin-7(8H)-one] | < 25 nM | > 5000 nM | < 10 nM |  |  |  |
| CC(=O)c1c(C)c2cnc(Nc3ccc(N4CC5CNCC(C4)O5)cn3)nc2n(C2CCCC2)c1=O [Compound 2, 2-(5-(9-oxa-3,7-diazabicyclo[3.3.1]nonan-3-yl)pyridin-2-ylamino)-6-acetyl-8-cyclopentyl-5-methylpyrido[2,3-d]pyrimidin-7(8H)-one] | < 100 nM | > 5000 nM | < 25 nM |  |  |  |
| CC(=O)c1c(C)c2cnc(Nc3ccc(N4CC5CNCC(C4)C5(F)F)cn3)nc2n(C2CCCC2)c1=O [Compound 4-2, 6-acetyl-8-cyclopentyl-2-(5-(9,9-difluoro-3,7-diazabicyclo[3.3.1]nonan-3-yl)pyridin-2-ylamino)-5-methylpyrido[2,3-d]pyrimidin-7(8H)-one] | < 100 nM |  | < 50 nM |  |  |  |
| CC(=O)c1c(C)c2cnc(Nc3ccc(N4CCN(C(=O)CCCC(=O)NO)CC4)cn3)nc2n(C2CCCC2)c1=O [Compound 13, 5-(4-(6-(6-acetyl-8-cyclopentyl-5-methyl-7-oxo-7,8-dihydropyrido[2,3-d]pyrimidin-2-ylamino)pyridin-3-yl)piperazin-1-yl)-N-hydroxy-5-oxopentanamide] | < 50 nM | > 1000 nM | < 25 nM |  |  |  |
| CC(=O)c1c(C)c2cnc(Nc3ccc(C(=O)NO)cn3)nc2n(C2CCCC2)c1=O [Compound 17, 6-((6-acetyl-8-cyclopentyl-5-methyl-7-oxo-7,8-dihydropyrido[2,3-d]pyrimidin-2-yl)amino)-N-hydroxynicotinamide] | < 500 nM | > 1000 nM | < 50 nM | < 50 nM | < 500 nM |  |
